Test results as given in US20170299579A1, “VITELLINE MEMBRANE AS A MODEL OF THE BLOOD BRAIN BARRIER” (priority 2016, published 2017).
Where two headings read alike, the source gives them in different places.

How the values were obtained:
[1] = not told
[2] = not told; remark: listed apart in the source
[3] = Permeability of vitelline membrane of decalcified quail eggs (agent reaching the yolk), model of the human blood brain barrier
[4] = Spectrophotometric absorbance of albumen of decalcified quail eggs after incubation with agent; type: in vitro ADME
Experimental: (§1) An Ultrospect III spectrophotometer (Pharmacia, Cambridge, England) was recently calibrated by Spectrofuge Corporation of North Carolina, Inc. (Durham, N.C.). Blank quartz cuvettes were selected with the smallest deviation in absorbance. Standard solutions of 2.6×10^−3M acetaminophen and 4.4×10^−3 2-cholorprocaine were prepared. Approximate peak ultraviolet wavelengths were determined with the standard solutions in methanol and PBS. Fine adjustment of the optimum wavelength was performed by retrofit of Beer's law plots of the standards and dilutions. Optimum absorbance wavelengths for acetaminophen and 2-chloroprocaine were 300 nm 329 nm, respectively. Optimum absorbance wavelengths for acetaminophen and 2-choroprocaine dissolve in PBS were 319 nm and 340, respectively. (Table 3)
(§2) The decalcified eggs were soaked in solutions for 2 or 12 hours and then placed in a home freezer prior to analysis. The quail eggs were opened with a razor knife and the denatured albumen and yolk were separated. In most samples the vitelline membrane could be easily separated from the yolk. Samples of the denatured albumen and yolk were dissolved in 5 ml of methanol or PBS and centrifuged at 2700 rpm for 5 minutes. The supernatants were then clarified through a 0.2 micrometer filter (MILLEX-FG, Merck Millipore, Ltd). Clarification of the PBS samples was more difficult than the methanol samples. The clear filtrate was placed in quartz cuvettes. Any air bubbles were eliminated and the samples were analyzed in the spectrophotometer. (Tables 4&5)

[5] = Spectrophotometric absorbance of yolk of decalcified quail eggs after incubation with agent; type: in vitro ADME
Experimental: as §1, §2

[6] = in PBS, 4.4 × 10^−2 m/l, 340 nm, 12 hours
[7] = in methanol, 4.4 × 10^−2 m/L, 329 nm, 2 hours
[8] = in methanol, 4.4 × 10^−2 m/L, 329 nm, 12 hours

Permeability (outer and inner membrane) [1]	Permeability (vitelline membrane) [2]	Structure (SMILES)	also measured
		CN(C)c1ccc(C(=C2C=CC(=[N+](C)C)C=C2)c2ccccc2)cc1 [Malachite green]	Permeability (vitelline membrane) ([3]; 0.01M, incubation time 2 hours): −
		CCN(CC)CCOC(=O)c1ccc(N)cc1Cl [2-Chloroprocaine]	Permeability (vitelline membrane) ([3]; agent in PBS, 2-Chloroprocaine 4 × 10^−2 M, Acetaminophen 2.6 × 10^−1 M, incubation time 12 hours): +; Permeability (vitelline membrane) ([3]; agent in methanol, 2-Chloroprocaine 4 × 10−2 M, Acetaminophen 2.6 × 10^−1 M, incubation time 2 & 12 hours): +; Crossing of the vitelline membrane ([3]; spectroscopic analysis): crossed the vitelline membrane; Albumen (abs) [4, 6]: 0.48 abs; Albumen (abs) [4, 7]: 1.86 abs; Albumen (abs) [4, 8]: 2.52 abs; Yolk (abs) [5, 6]: 1.04 abs; Yolk (abs) [5, 7]: 1.37 abs; Yolk (abs) [5, 8]: 1.71 abs
+	−	O=C1OC2(c3ccc(O)cc3Oc3cc(O)ccc32)c2ccccc21 [Fluorescein]	
		[K+].[K+].[O]=[Cr](=[O])([O-])[O][Cr](=[O])(=[O])[O-] [Potassium dichromate]	Permeability (vitelline membrane) ([3]; 0.01M, incubation time 2 hours): −
+	−	C=C[C@H]1C[N@@]2CC[C@H]1C[C@H]2[C@H](O)c1ccnc2ccc(OC)cc12 [Quinine]	
+	+	CC(=O)Nc1ccc(O)cc1 [Acetaminophen]	Albumen (abs) ([4]; quail, 2 h): 2.85 abs; Crossing of the vitelline membrane [2]: crossed the vitelline membrane; Yolk (abs) ([5]; quail, 2 h): 2.40 abs
+	−	CN(C)c1ccc(/N=N/c2ccccc2C(=O)O)cc1 [Methyl red]	
+	+	CCO [Ethanol]	Crossing of the vitelline membrane [2]: crossed the vitelline membrane

Structure (SMILES)	Permeability (outer and inner membrane) [1]	Permeability (vitelline membrane) [2]	also measured
CCN(Cc1cccc(S(=O)(=O)[O-])c1)c1ccc(C(=C2C=CC(=[N+](CC)Cc3cccc(S(=O)(=O)[O-])c3)C=C2)c2ccccc2S(=O)(=O)[O-])cc1.[Na+].[Na+] [FD&C Blue #1]	+	−	
CCOCC [Ether, diethyl ether]	+		
Cc1cc(C2(c3ccc(O)c(C)c3)OS(=O)(=O)c3ccccc32)ccc1O [Creosol red]	+	−	
